For one assay, the target named is EGFR (Homo sapiens (Human), UniProt P00533). Put plainly: Kinase inhibition assay (Caliper, FAM-labeled peptide substrate). The class given is biochemical. The method, then:
(§1) 2.5 times of the kinase (VEGFR2 or EGFR or FYN) buffer solution was added to the compound diluted in equal concentration in the 384-well plate and incubated at 22-27° C. for 10 minutes, then 2.5 times of the FAM-labeled peptide substrate and ATP buffer solution were added therein and incubated at 28° C., and then the stop buffer solution was added to stop the reaction. The data was read by Caliper and the following formula was used to calculate the IC50 inhibition: Percent inhibition=(max-conversion)/(max-min)*100. Staurosporine was used as a control. In kinase inhibition assays, some of the compounds of the present invention are effective in inhibiting VEGFR2/FYN/EGFR, so they have the potential for treating or preventing cancer or central nervous system diseases (Table 1).

A further assay addresses VEGFR2 (Homo sapiens (Human), UniProt P35968). Described as above. The assay is classed as biochemical. As for the experimental part:
as §1

Another assay deals with SKOV3 tumor cells. Put plainly: SKOV3 tumor cell mouse subcutaneous animal model. The assay is classed as in vivo. As to conditions: monotherapy, oral, twice a day, four weeks, vs control group. The method, then: (§2) In the efficacy experiment of SKOV3 tumor cell mouse subcutaneous animal model (FIG. 1), the drug was administered on the 30th day after the tumor cells were planted and the drug administration was lasted for four weeks. […] In the efficacy experiment of the PC-9Luc tumor cell mouse intracranial animal model (FIG. 2), the drug was administered on the 10th day after the tumor cells were planted and the drug administration was lasted for three weeks. The second group of compound 1 was used as monotherapy, 10 mg/kg, oral dosing, twice a day; the third group of EGFR inhibitors (chemical name: (R)-6-[(3,3-difluoro-1-methylpiperidin-4-yl)oxy]-nitrogen-(3-ethynyl-2-fluorophenyl)-7-methoxyquinazolin-4-amine) was used as monotherapy, 3 mg/kg, oral dosing, twice a day; the fourth group of compound 1 combined with EGFR inhibitors.

Another assay deals with PC-9Luc tumor cells. Put plainly: PC-9Luc tumor cell mouse intracranial animal model. The class given is in vivo. As to conditions: monotherapy, 3 mg/kg, oral, twice a day, three weeks; vs control group. As for the experimental part: as §2
A further assay has as its target FYN (Homo sapiens (Human), UniProt P06241). Put plainly: Kinase inhibition assay (Caliper, FAM-labeled peptide substrate). The assay is classed as biochemical. As for the experimental part: as §1

Molecules are shown by their SMILES.

Sequence of EGFR (P00533 25-1210, species assumed): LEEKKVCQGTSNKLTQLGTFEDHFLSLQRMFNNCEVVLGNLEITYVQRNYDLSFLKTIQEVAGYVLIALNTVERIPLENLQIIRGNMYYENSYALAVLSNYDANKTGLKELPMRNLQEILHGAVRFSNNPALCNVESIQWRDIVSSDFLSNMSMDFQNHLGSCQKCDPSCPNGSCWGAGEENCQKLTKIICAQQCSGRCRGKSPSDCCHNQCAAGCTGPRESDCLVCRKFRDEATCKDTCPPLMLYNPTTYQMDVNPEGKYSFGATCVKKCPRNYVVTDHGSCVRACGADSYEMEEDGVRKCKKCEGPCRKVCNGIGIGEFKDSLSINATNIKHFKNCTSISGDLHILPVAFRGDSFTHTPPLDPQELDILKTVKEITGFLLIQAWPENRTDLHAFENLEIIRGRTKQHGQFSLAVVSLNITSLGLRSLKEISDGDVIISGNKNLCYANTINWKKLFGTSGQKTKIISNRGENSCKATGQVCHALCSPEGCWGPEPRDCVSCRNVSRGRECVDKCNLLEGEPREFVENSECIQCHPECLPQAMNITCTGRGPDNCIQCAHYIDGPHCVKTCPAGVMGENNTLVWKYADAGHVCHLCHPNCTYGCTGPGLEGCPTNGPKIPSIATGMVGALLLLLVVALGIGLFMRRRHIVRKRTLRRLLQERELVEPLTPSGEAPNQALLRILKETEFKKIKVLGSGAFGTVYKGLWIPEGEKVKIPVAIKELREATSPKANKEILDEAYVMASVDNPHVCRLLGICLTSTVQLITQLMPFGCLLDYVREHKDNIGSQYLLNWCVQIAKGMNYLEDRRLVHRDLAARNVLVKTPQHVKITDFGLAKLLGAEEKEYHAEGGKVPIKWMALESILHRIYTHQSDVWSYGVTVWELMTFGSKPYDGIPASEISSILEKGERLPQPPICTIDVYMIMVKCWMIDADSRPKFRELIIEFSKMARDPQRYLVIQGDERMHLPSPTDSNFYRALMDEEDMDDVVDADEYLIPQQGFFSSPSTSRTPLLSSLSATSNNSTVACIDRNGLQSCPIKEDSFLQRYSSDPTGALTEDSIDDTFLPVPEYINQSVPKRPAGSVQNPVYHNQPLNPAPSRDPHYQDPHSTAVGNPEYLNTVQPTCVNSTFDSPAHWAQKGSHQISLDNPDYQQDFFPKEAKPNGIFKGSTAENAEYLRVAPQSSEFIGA
Sequence of VEGFR2 (P35968 20-1356): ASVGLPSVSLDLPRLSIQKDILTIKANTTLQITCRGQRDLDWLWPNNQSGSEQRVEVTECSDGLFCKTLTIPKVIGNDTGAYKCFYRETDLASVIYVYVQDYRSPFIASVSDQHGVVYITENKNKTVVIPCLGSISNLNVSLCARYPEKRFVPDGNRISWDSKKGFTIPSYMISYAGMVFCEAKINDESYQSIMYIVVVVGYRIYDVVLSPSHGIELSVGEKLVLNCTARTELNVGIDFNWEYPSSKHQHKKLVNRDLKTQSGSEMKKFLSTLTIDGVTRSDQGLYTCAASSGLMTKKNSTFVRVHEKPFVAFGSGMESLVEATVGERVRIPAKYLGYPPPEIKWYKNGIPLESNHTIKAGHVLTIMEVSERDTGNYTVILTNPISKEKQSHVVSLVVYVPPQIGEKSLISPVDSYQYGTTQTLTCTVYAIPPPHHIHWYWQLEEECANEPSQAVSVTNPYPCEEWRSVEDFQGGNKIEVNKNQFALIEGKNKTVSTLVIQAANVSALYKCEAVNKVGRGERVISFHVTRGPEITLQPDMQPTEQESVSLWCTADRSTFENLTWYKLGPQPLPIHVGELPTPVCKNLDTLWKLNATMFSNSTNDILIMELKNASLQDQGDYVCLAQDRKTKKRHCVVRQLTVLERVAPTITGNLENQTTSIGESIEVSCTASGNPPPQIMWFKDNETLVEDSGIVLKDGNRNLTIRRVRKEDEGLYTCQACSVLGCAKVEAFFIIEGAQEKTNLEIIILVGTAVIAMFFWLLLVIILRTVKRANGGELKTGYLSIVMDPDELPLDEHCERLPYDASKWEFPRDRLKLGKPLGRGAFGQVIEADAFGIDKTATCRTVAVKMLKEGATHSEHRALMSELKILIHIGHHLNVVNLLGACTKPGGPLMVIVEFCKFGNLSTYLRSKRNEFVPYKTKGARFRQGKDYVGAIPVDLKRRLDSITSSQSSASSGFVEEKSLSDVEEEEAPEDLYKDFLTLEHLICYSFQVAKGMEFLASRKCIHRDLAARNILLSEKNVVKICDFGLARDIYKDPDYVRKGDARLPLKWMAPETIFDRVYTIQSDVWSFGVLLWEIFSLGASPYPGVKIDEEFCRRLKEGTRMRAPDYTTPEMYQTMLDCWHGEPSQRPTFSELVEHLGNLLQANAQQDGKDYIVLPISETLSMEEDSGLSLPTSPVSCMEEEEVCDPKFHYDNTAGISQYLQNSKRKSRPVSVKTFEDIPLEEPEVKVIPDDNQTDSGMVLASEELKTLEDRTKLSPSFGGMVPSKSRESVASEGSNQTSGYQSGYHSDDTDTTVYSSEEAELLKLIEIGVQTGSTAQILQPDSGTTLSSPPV
Sequence of FYN (P06241 whole entry): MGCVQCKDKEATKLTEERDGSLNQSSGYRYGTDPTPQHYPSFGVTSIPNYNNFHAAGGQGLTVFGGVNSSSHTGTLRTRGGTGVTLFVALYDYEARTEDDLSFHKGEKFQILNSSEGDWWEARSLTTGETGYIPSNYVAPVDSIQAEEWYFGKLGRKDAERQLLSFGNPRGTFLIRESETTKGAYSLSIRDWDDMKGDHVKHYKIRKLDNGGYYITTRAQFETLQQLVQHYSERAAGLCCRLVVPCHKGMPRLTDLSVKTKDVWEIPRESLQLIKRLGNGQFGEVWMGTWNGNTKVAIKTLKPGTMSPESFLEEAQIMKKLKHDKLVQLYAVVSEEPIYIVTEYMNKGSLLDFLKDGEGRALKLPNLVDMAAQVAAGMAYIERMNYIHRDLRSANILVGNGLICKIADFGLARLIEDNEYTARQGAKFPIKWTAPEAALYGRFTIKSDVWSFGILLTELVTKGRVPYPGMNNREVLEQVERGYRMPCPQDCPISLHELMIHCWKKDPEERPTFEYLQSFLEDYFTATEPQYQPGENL

For `C#Cc1c(F)ccc(Nc2ncnc3cc(OC)cc(O[C@@H]4CCN(C)CC4(F)F)c23)c1F` [Compound 32, (R)-5-((3,3-difluoro-1-methylpiperidin-4-yl)oxy)-N-(3-ethynyl-2,4-difluorophenyl)-7-methoxyquinazolin-4-amine], the IC50 (as a rule, the concentration that inhibits the measured activity by half) on EGFR is less than 10 nM. On to `COc1cc(O[C@@H]2CCN(C)CC2(F)F)c2c(Oc3ccc4[nH]c(C)cc4c3F)ncnc2c1` [Compound 18, (R)-5-((3,3-difluoro-1-methylpiperidin-4-yl)oxy)-4-((4-fluoro-2-methyl-1H-indole-5-yl)oxy)-7-deuterated methoxyquinazoline], for which the half-inhibitory concentration (IC50) on VEGFR2 is less than 10 nM.

`COc1cc(O[C@H]2CCN(C)CC2(F)F)c2c(Oc3ccc4[nH]c(C)cc4c3F)ncnc2c1` [Compound 34, (S)-5-((3,3-difluoro-1-methylpiperidin-4-yl)oxy)-4-((4-fluoro-2-methyl-1H-indole-5-yl)oxy)-7-deuterated methoxyquinazoline]: the IC50 against VEGFR2 was less than 10 nM. As to `COc1cc(OC2CCN(C)CC2(F)F)c2c(Oc3cc(F)c4[nH]c(C)cc4c3F)ncnc2c1` (racemic) [Compound 3, (R/S)-5-((3,3-difluoro-1-methylpiperidin-4-yl)oxy)-4-((4,7-difluoro-2-methyl-1H-indol-5-yl)oxy)-7-methoxyquinazoline], the IC50 on VEGFR2 is less than 10 nM.

With `COc1cc(O[C@@H]2CCN(C)CC2(F)F)c2c(Oc3cc(F)c4[nH]c(C)cc4c3F)ncnc2c1` [Compound 19, (R)-5-((3,3-difluoro-1-methylpiperidin-4-yl)oxy)-4-((4,7-difluoro-2-methyl-1H-indol-5-yl)oxy)-7-methoxyquinazoline], the IC50 on VEGFR2 is less than 10 nM. In the case of `C#Cc1c(F)ccc(Nc2ncnc3cc(OC)cc(OC4CCN(C)CC4(F)F)c23)c1F` (racemic) [Compound 16, (R/S)-5-((3,3-difluoro-1-methylpiperidin-4-yl)oxy)-N-(3-ethynyl-2,4-difluorophenyl)-7-methoxyquinazolin-4-amine], the IC50 at EGFR is less than 10 nM. `C#Cc1c(F)ccc(Nc2ncnc3cc(OC)cc(O[C@H]4CCN(C)CC4(F)F)c23)c1F` [Compound 48, (S)-5-((3,3-difluoro-1-methylpiperidin-4-yl)oxy)-N-(3-ethynyl-2,4-difluorophenyl)-7-methoxyquinazolin-4-amine] had an IC50 against EGFR of less than 10 nM. At VEGFR2, `COc1cc(O[C@H]2CCN(C)CC2(F)F)c2c(Oc3ccc4[nH]c(C)cc4c3F)ncnc2c1` [Compound 33, (S)-5-((3,3-difluoro-1-methylpiperidin-4-yl)oxy)-4-((4-fluoro-2-methyl-1H-indole-5-yl)oxy)-7-methoxyquinazoline] registered an IC50 of less than 10 nM.

`C#Cc1cccc(Nc2ncnc3cc(OC)cc(OC4CCN(C)CC4(F)F)c23)c1F` (racemic) [Compound 11, (R/S)-5-((3,3-difluoro-1-methylpiperidin-4-yl)oxy)-N-(3-ethynyl-2-fluorophenyl)-7-methoxyquinazolin-4-amine] gave an IC50 on EGFR of less than 10 nM.

Compound `COc1cc(OC2CCN(C)CC2(F)F)c2c(Oc3ccc4[nH]c(C)cc4c3F)ncnc2c1` (racemic) [Compound 1, (R/S)-5-((3,3-difluoro-1-methylpiperidin-4-yl)oxy)-4-((4-fluoro-2-methyl-1H-indole-5-yl)oxy)-7-methoxyquinazoline] returned an IC50 at VEGFR2 of less than 10 nM. In addition, the “inhibition of tumor growth” value in the assay on SKOV3 tumor cells (10 mg/kg) and in the assay with SKOV3 tumor cells (20 mg/kg) was “good inhibition of tumor growth” in each case. On EGFR, `C#Cc1cccc(Nc2ncnc3cc(OC)cc(O[C@@H]4CCN(C)CC4(F)F)c23)c1F` [Compound 27, (R)-5-((3,3-difluoro-1-methylpiperidin-4-yl)oxy)-N-(3-ethynyl-2-fluorophenyl)-7-methoxyquinazolin-4-amine] displayed an IC50 of less than 10 nM. With `COc1cc(O[C@@H]2CCN(C)CC2(F)F)c2c(Oc3ccc4[nH]c(C)cc4c3F)ncnc2c1` [Compound 17, (R)-5-((3,3-difluoro-1-methylpiperidin-4-yl)oxy)-4-((4-fluoro-2-methyl-1H-indole-5-yl)oxy)-7-methoxyquinazoline], on VEGFR2, the IC50 was less than 10 nM. Consider `C#Cc1cccc(Nc2ncnc3cc(OC)c(O[C@@H]4CCN(C)CC4(F)F)cc23)c1F` [EGFR inhibitor, (R)-6-[(3,3-difluoro-1-methylpiperidin-4-yl)oxy]-nitrogen-(3-ethynyl-2-fluorophenyl)-7-methoxyquinazolin-4-amine], for which the “inhibition of intracranial tumor growth” value in the assay with PC-9Luc tumor cells is given as “good inhibition on intracranial tumor growth”. `COc1cc(O[C@H]2CCN(C3COC3)CC2(F)F)c2c(Nc3c(F)ccc4c3OCO4)ncnc2c1` [Compound 45, (S)-5-((3,3-difluoro-1-(oxetane-3-yl)piperidin-4-yl)oxy)-N-(5-fluorobenzo[d] [1,3]dioxolcyclopenten-4-yl)-7-methoxyquinazolin-4-amine]: at FYN, the IC50 is less than 100 nM. On the same count and under the same terms, with `COc1cc(O[C@H]2CCN(C)CC2(F)F)c2c(Nc3c(F)ccc4c3OCO4)ncnc2c1` [Compound 39, (S)—N-(5-fluorobenzo[d][1,3]dioxolcyclopenten-4-yl)-5-((3,3-difluoro-1-methylpiperidin-4-yl)oxy)-7-deuterated methoxyquinazolin-4-amine] the figure was less than 100 nM; with `COc1cc(OC2CCN(C)CC2(F)F)c2c(Nc3c(F)ccc4c3OCO4)ncnc2c1` (racemic) [Compound 7, (R/S)—N-(5-fluorobenzo[d][1,3]dioxolcyclopenten-4-yl)-5-((3,3-difluoro-1-methylpiperidin-4-yl)oxy)-7-deuterated methoxyquinazolin-4-amine], less than 100 nM. Still for that read-out and setting: in the case of `COc1cc(O[C@@H]2CCN(C)CC2(F)F)c2c(Nc3c(Cl)ccc4c3OCO4)ncnc2c1` [Compound 20, (R)—N-(5-chlorobenzo[d][1,3]dioxolcyclopenten-4-yl)-5-((3,3-difluoro-1-methylpiperidin-4-yl)oxy)-7-methoxyquinazolin-4-amine] it was less than 100 nM.

Regarding `C#Cc1cccc(Nc2ncnc3cc(OC)cc(O[C@H]4CCN(C)CC4(F)F)c23)c1F` (single isomer, unassigned) [Compound 43], the IC50 against EGFR was less than 10 nM. Regarding `COc1cc(OC2CCN(C)CC2(F)F)c2c(Oc3ccc4[nH]c(C)cc4c3F)ncnc2c1` (racemic) [Compound 2, (R/S)-5-((3,3-difluoro-1-methylpiperidin-4-yl)oxy)-4-((4-fluoro-2-methyl-1H-indole-5-yl)oxy)-7-deuterated methoxyquinazoline], on VEGFR2, the IC50 was less than 10 nM.

Compound `COc1cc(O[C@@H]2CCN(C)CC2(F)F)c2c(Nc3cc(OC)c(Cl)cc3F)ncnc2c1` [Compound 24, (R)—N-(4-chloro-2-fluoro-5-methoxyphenyl)-5-((3,3-difluoro-1-methylpiperidin-4-yl)oxy)-7-methoxyquinazolin-4-amine] registered an IC50 at FYN of less than 100 nM. As for `COc1cc(O[C@H]2CCN(C)CC2(F)F)c2c(Oc3cc(F)c4[nH]c(C)cc4c3F)ncnc2c1` [Compound 35, (S)-5-((3,3-difluoro-1-methylpiperidin-4-yl)oxy)-4-((4,7-difluoro-2-methyl-1H-indol-5-yl)oxy)-7-methoxyquinazoline], the IC50 against VEGFR2 is less than 10 nM.

Values taken from patent US11713306B2, “5-substituted difluoropiperidine compounds with blood-brain barrier penetrable capability” (Wayshine Biopharm Holding Limited, priority 2018, dated 2023).
